In the supplement of paper PMC10307832:

How the values were obtained:
Test in all cases: relative viability (nuclei count vs DMSO), 5 days (fraction); higher = more cells survive
COR-L23 = system: COR-L23
Outline: (§1)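 Lung cancer cell lines in 1536-well plates got either a single drug or a fixed anchor-drug dose together with five library-drug doses (not always all listed) in √10 steps, by pin tool, on the day after seeding. Nuclei were counted after 5 days, and relative viability is the treated-to-vehicle ratio of nuclei counts. Values are medians of duplicate plates.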

NCI-H23 = system: NCI-H23
Outline: as §1

NCI-H647 = system: NCI-H647
Outline: as §1

LC-2-ad = system: LC-2-ad
Outline: as §1

NCI-H1993 = system: NCI-H1993
Outline: as §1

HOP-62 = system: HOP-62
Outline: as §1

ABC-1 = system: ABC-1
Outline: as §1

NCI-H520 = system: NCI-H520
Outline: as §1

ChaGo-K-1 = system: ChaGo-K-1
Outline: as §1

NCI-H2347 = system: NCI-H2347
Outline: as §1

HCC-44 = system: HCC-44
Outline: as §1

NCI-H838 = system: NCI-H838
Outline: as §1

NCI-H2085 = system: NCI-H2085
Outline: as §1

NCI-H1355 = system: NCI-H1355
Outline: as §1

NCI-H661 = system: NCI-H661
Outline: as §1

NCI-H1395 = system: NCI-H1395
Outline: as §1

CAL-12T = system: CAL-12T
Outline: as §1

201T = system: 201T
Outline: as §1

NCI-H1666 = system: NCI-H1666
Outline: as §1

NCI-H322M = system: NCI-H322M
Outline: as §1

NCI-H2170 = system: NCI-H2170
Outline: as §1

NCI-H2228 = system: NCI-H2228
Outline: as §1

LCLC-103H = system: LCLC-103H
Outline: as §1

NCI-H1651 = system: NCI-H1651
Outline: as §1

For `CCCCCCCCCCCC1=C(O)C(=O)C=C(O)C1=O` [Embelin] + CS(=O)(=O)N1CCN(Cc2cc3nc(-c4cccc5[nH]ncc45)nc(N4CCOCC4)c3s2)CC1 [Pictilisib] (partner 1 µM), the relative viability (COR-L23; first compound 0.08 µM) was 0.832, the relative viability (COR-L23; first compound 0.8 µM) was 0.958 and the relative viability (COR-L23; first compound 2.53 µM) was 0.874. The relative viability (COR-L23; first compound 8 µM) was 0.93, the relative viability (NCI-H23; first compound 0.08 µM) was 0.51 and the relative viability (NCI-H23; first compound 0.8 µM) was 0.573. The relative viability (NCI-H23; first compound 2.53 µM) was 0.475, the relative viability (NCI-H23; first compound 8 µM) was 0.479 and the relative viability (NCI-H647; first compound 0.08 µM) was 0.423. For the same compound, the relative viability (NCI-H647; first compound 0.8 µM) was 0.59, the relative viability (NCI-H647; first compound 2.53 µM) was 0.403 and the relative viability (NCI-H647; first compound 8 µM) was 0.285. The relative viability (LC-2-ad; first compound 0.08 µM) was 0.458, the relative viability (LC-2-ad; first compound 0.8 µM) was 0.566 and the relative viability (LC-2-ad; first compound 2.53 µM) was 0.618. It also gave a relative viability (LC-2-ad; first compound 8 µM) of 0.392, a relative viability (NCI-H1993; first compound 0.08 µM) of 0.729 and a relative viability (NCI-H1993; first compound 0.8 µM) of 0.733. The relative viability (NCI-H1993; first compound 2.53 µM) was 0.776, the relative viability (NCI-H1993; first compound 8 µM) was 0.803 and the relative viability (HOP-62; first compound 0.08 µM) was 0.883. The relative viability (HOP-62; first compound 0.8 µM) was 0.964, the relative viability (HOP-62; first compound 2.53 µM) was 0.433 and the relative viability (HOP-62; first compound 8 µM) was 0.503. It also gave a relative viability (ABC-1; first compound 0.08 µM) of 0.876, a relative viability (ABC-1; first compound 0.8 µM) of 0.861 and a relative viability (ABC-1; first compound 2.53 µM) of 0.678. For the same compound, the relative viability (ABC-1; first compound 8 µM) was 0.646, the relative viability (NCI-H520; first compound 0.08 µM) was 0.346 and the relative viability (NCI-H520; first compound 0.8 µM) was 0.386. It also gave a relative viability (NCI-H520; first compound 2.53 µM) of 0.418, a relative viability (NCI-H520; first compound 8 µM) of 0.361 and a relative viability (ChaGo-K-1; first compound 0.08 µM) of 1. It also gave a relative viability (ChaGo-K-1; first compound 0.8 µM) of 1.22, a relative viability (ChaGo-K-1; first compound 2.53 µM) of 0.626 and a relative viability (ChaGo-K-1; first compound 8 µM) of 0.428. For the same compound, the relative viability (NCI-H2347; first compound 0.08 µM) was 0.64, the relative viability (NCI-H2347; first compound 0.8 µM) was 0.886 and the relative viability (NCI-H2347; first compound 2.53 µM) was 0.924. It also gave a relative viability (NCI-H2347; first compound 8 µM) of 0.592, a relative viability (HCC-44; first compound 0.08 µM) of 0.62 and a relative viability (HCC-44; first compound 0.8 µM) of 0.61. It also gave a relative viability (HCC-44; first compound 2.53 µM) of 0.678, a relative viability (HCC-44; first compound 8 µM) of 0.7 and a relative viability (NCI-H838; first compound 0.08 µM) of 0.49. For the same compound, the relative viability (NCI-H838; first compound 0.8 µM) was 0.573, the relative viability (NCI-H838; first compound 2.53 µM) was 0.43 and the relative viability (NCI-H838; first compound 8 µM) was 0.479. For the same compound, the relative viability (NCI-H2085; first compound 0.08 µM) was 0.44, the relative viability (NCI-H2085; first compound 0.8 µM) was 0.404 and the relative viability (NCI-H2085; first compound 2.53 µM) was 0.44. For the same compound, the relative viability (NCI-H2085; first compound 8 µM) was 0.46, the relative viability (NCI-H1355; first compound 0.08 µM) was 0.501 and the relative viability (NCI-H1355; first compound 0.8 µM) was 0.601. For the same compound, the relative viability (NCI-H1355; first compound 2.53 µM) was 0.4, the relative viability (NCI-H1355; first compound 8 µM) was 0.273 and the relative viability (NCI-H661; first compound 0.08 µM) was 0.41. For the same compound, the relative viability (NCI-H661; first compound 0.8 µM) was 0.44, the relative viability (NCI-H661; first compound 2.53 µM) was 0.348 and the relative viability (NCI-H661; first compound 8 µM) was 0.481. The relative viability (NCI-H1395; first compound 0.08 µM) was 0.608, the relative viability (NCI-H1395; first compound 0.8 µM) was 0.677 and the relative viability (NCI-H1395; first compound 2.53 µM) was 0.69. The relative viability (NCI-H1395; first compound 8 µM) was 0.502, the relative viability (CAL-12T; first compound 0.08 µM) was 0.49 and the relative viability (CAL-12T; first compound 0.8 µM) was 0.587. It also gave a relative viability (CAL-12T; first compound 8 µM) of 0.391, a relative viability (201T; first compound 0.08 µM) of 0.645 and a relative viability (201T; first compound 0.8 µM) of 0.685. The relative viability (201T; first compound 2.53 µM) was 0.649, the relative viability (201T; first compound 8 µM) was 0.613 and the relative viability (NCI-H1666; first compound 0.08 µM) was 0.482. The relative viability (NCI-H1666; first compound 0.8 µM) was 0.549, the relative viability (NCI-H1666; first compound 2.53 µM) was 0.365 and the relative viability (NCI-H1666; first compound 8 µM) was 0.403. The relative viability (NCI-H322M; first compound 0.08 µM) was 0.518, the relative viability (NCI-H322M; first compound 0.8 µM) was 0.612 and the relative viability (NCI-H322M; first compound 2.53 µM) was 0.576. It also gave a relative viability (NCI-H322M; first compound 8 µM) of 0.478, a relative viability (NCI-H2170; first compound 0.08 µM) of 0.307 and a relative viability (NCI-H2170; first compound 0.8 µM) of 0.325. The relative viability (NCI-H2170; first compound 2.53 µM) was 0.366, the relative viability (NCI-H2170; first compound 8 µM) was 0.286 and the relative viability (NCI-H2228; first compound 0.08 µM) was 0.476. The relative viability (NCI-H2228; first compound 0.8 µM) was 0.375, the relative viability (NCI-H2228; first compound 2.53 µM) was 0.457 and the relative viability (NCI-H2228; first compound 8 µM) was 0.366. It also gave a relative viability (LCLC-103H; first compound 0.08 µM) of 0.591, a relative viability (LCLC-103H; first compound 0.8 µM) of 0.652 and a relative viability (LCLC-103H; first compound 2.53 µM) of 0.614. For the same compound, the relative viability (LCLC-103H; first compound 8 µM) was 0.677, the relative viability (NCI-H1651; first compound 0.08 µM) was 0.577 and the relative viability (NCI-H1651; first compound 0.8 µM) was 0.647. The relative viability (NCI-H1651; first compound 2.53 µM) was 0.769 and the relative viability (NCI-H1651; first compound 8 µM) was 0.607.
